The source made the active and inactive calls. No cut-off for these calls is given here.
What was measured:
[1] = Induction of apoptosis in human KM3 cells assessed as necrotic cells at 10 uM measured after 48 hrs by Annexin V-FITC/propidium iodide staining based flow cytometry (reference value: 0.42%); type: functional
HepG2 [2] = test: Induction of apoptosis in human HepG2 cells assessed as necrotic cells at 20 uM measured after 48 hrs by Annexin V-FITC/propidium iodide staining based flow cytometry (reference value: 0.52%); type: functional
Homo sapiens = species on record: Homo sapiens; test: Inhibition of 5-FAM-BH3 peptide binding to human N-terminal GST-tagged BCL-2 (1 to 34 residues)/BCL-XL (29 to 44 residues)/BCL-2 isoform 2 (92 to 207 residues) expressed in Escherichia coli BL21 (DE3) at 100 uM by fluorescence polarization assay relative to control
HepG2 [3] = test: Antiproliferative activity against human HepG2 cells incubated for 72 hrs by MTT assay; type: functional, cell-based; details: HepG2, 72 h
[4] = target: Bcl-2-like protein 1 (Homo sapiens) (UniProt Q07817); test: Inhibition of 5-FAM-BH3 peptide binding to human N-terminal GST-tagged BCL-XL (1 to 212 residues) expressed in Escherichia coli BL21 (DE3) at 100 uM by fluorescence polarization assay relative to control
HepG2 [5] = test: Induction of apoptosis in human HepG2 cells transfected with siMcl-1 at 10 uM measured after 48 hrs by Annexin V-FITC/propidium iodide staining based flow cytometry; type: functional, cell-based
[6] = Induction of apoptosis in human KM3 cells assessed as early apoptotic cells at 10 uM measured after 48 hrs by Annexin V-FITC/propidium iodide staining based flow cytometry (reference value: 2.18%); type: functional
[7] = Inhibition of 5-FAM-BH3 peptide binding to N-terminal His8-tagged human MCL-1 (209 to 327 residues)/mouse MCL-1 (152 to 189 residues) expressed in Escherichia coli BL21 (DE3) by fluorescence polarization assay
PC-3 = test: Antiproliferative activity against human PC-3 cells incubated for 72 hrs by MTT assay; type: functional, cell-based; details: PC-3, 72 h
Jurkat = test: Antiproliferative activity against human Jurkat cells incubated for 72 hrs by MTT assay; type: functional, cell-based
HepG2 [8] = test: Induction of apoptosis in human HepG2 cells assessed as early apoptotic cells at 10 uM measured after 48 hrs by Annexin V-FITC/propidium iodide staining based flow cytometry (reference value: 0.71%); type: functional
[9] = Induction of apoptosis in human KM3 cells assessed as early apoptotic cells at 20 uM measured after 48 hrs by Annexin V-FITC/propidium iodide staining based flow cytometry (reference value: 2.18%); type: functional
HepG2 [10] = test: Induction of apoptosis in human HepG2 cells assessed as viable cells at 10 uM measured after 48 hrs by Annexin V-FITC/propidium iodide staining based flow cytometry (reference value: 96.84%); type: functional; details: read-out: Activity
KM3 = test: Induction of apoptosis in human KM3 cells measured after 48 hrs by Annexin V-FITC/propidium iodide staining based flow cytometry; type: functional, cell-based
[11] = Induction of apoptosis in human KM3 cells assessed as viable cells at 20 uM measured after 48 hrs by Annexin V-FITC/propidium iodide staining based flow cytometry (reference value: 96.24%); type: functional; details: read-out: Activity
HepG2 [12] = test: Induction of apoptosis in human HepG2 cells assessed as late apoptotic cells at 20 uM measured after 48 hrs by Annexin V-FITC/propidium iodide staining based flow cytometry (reference value: 1.93%); type: functional
HepG2 [13] = test: Induction of apoptosis in human HepG2 cells assessed as early apoptotic cells at 20 uM measured after 48 hrs by Annexin V-FITC/propidium iodide staining based flow cytometry (reference value: 0.71%); type: functional
HepG2 [14] = test: Induction of apoptosis in human HepG2 cells measured after 48 hrs by Annexin V-FITC/propidium iodide staining based flow cytometry; type: functional, cell-based
[15] = Induction of apoptosis in human KM3 cells assessed as viable cells at 10 uM measured after 48 hrs by Annexin V-FITC/propidium iodide staining based flow cytometry (reference value: 96.24%); type: functional; details: read-out: Activity
HepG2 [16] = test: Induction of apoptosis in human HepG2 cells assessed as necrotic cells at 10 uM measured after 48 hrs by Annexin V-FITC/propidium iodide staining based flow cytometry (reference value: 0.52%); type: functional
[17] = Induction of apoptosis in human KM3 cells assessed as late apoptotic cells at 10 uM measured after 48 hrs by Annexin V-FITC/propidium iodide staining based flow cytometry (reference value: 1.15%); type: functional
RPMI-8226 = test: Antiproliferative activity against human RPMI-8226 cells incubated for 72 hrs by MTT assay; type: functional, cell-based; details: RPMI-8226, 72 h
MOLT-4 = test: Antiproliferative activity against human MOLT-4 cells incubated for 72 hrs by MTT assay; type: functional, cell-based; details: MOLT-4, 72 h
HepG2 [18] = test: Induction of apoptosis in human HepG2 cells measured after 48 hrs by TUNEL staining based fluorescence microscopy; type: functional, cell-based
NCI-H1299 = test: Antiproliferative activity against human NCI-H1299 cells incubated for 72 hrs by MTT assay; type: functional, cell-based; details: NCI-H1299, 72 h
HepG2 [19] = test: Induction of apoptosis in human HepG2 cells assessed as late apoptotic cells at 10 uM measured after 48 hrs by Annexin V-FITC/propidium iodide staining based flow cytometry (reference value: 1.93%); type: functional
[20] = Induction of apoptosis in human KM3 cells assessed as late apoptotic cells at 20 uM measured after 48 hrs by Annexin V-FITC/propidium iodide staining based flow cytometry (reference value: 1.15%); type: functional
[21] = Induction of apoptosis in human KM3 cells assessed as necrotic cells at 20 uM measured after 48 hrs by Annexin V-FITC/propidium iodide staining based flow cytometry (reference value: 0.42%); type: functional
HepG2 [22] = test: Induction of apoptosis in human HepG2 cells assessed as viable cells at 20 uM measured after 48 hrs by Annexin V-FITC/propidium iodide staining based flow cytometry (reference value: 96.84%); type: functional; details: read-out: Activity
[23] = Antiproliferative activity against human KM3 cells incubated for 72 hrs by MTT assay; type: functional, cell-based; details: KM3, 72 h
[24] = Inhibition of 5-FAM-BH3 peptide binding to human N-terminal GST-tagged BCL-2 (1 to 34 residues)/BCL-XL (29 to 44 residues)/BCL-2 isoform 2 (92 to 207 residues) expressed in Escherichia coli BL21 (DE3) by fluorescence polarization assay
HepG2 [25] = test: Induction of apoptosis in human HepG2 cells at 10 to 20 uM measured after 48 hrs by TUNEL staining based fluorescence microscopy; type: functional, cell-based; details: dose 10-20 µM

Sequence of Bcl-2-like protein 1 (Homo sapiens) (Q07817 whole entry, the tested form may be a part): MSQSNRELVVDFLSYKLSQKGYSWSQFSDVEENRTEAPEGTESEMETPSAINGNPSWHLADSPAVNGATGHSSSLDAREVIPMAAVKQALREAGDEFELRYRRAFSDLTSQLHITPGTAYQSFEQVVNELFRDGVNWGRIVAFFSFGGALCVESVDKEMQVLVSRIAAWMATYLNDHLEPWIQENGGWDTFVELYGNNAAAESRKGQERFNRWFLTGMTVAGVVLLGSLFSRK

| IC50 (HepG2 [3]) [µM] | inhibition [4] [%] | IC50 (PC-3) [µM] | IC50 (Jurkat) [µM] | IC50 (RPMI-8226) [µM] | IC50 (MOLT-4) [µM] | IC50 (NCI-H1299) [µM] | Compound | Activity [1] [%] | Activity (HepG2 [2]) [%] | Activity [6] [%] | Ki [7] [µM] | Activity (HepG2 [8]) [%] | Activity [9] [%] | viability at 10 µM (HepG2 [10]) [%] | viability at 20 µM [11] [%] | Activity (HepG2 [12]) [%] | Activity (HepG2 [13]) [%] | viability at 10 µM [15] [%] | Activity (HepG2 [16]) [%] | Activity [17] [%] | further results |
| --- | --- | --- | --- | --- | --- | --- | --- | --- | --- | --- | --- | --- | --- | --- | --- | --- | --- | --- | --- | --- | --- |
| 7.5 | > 50 | 18.9 | 16.5 | 7.67 | 17.7 | 21.6 | Cc1ccc(CC(=O)N[C@@H](Cc2cc(Br)c(OCCOc3cccc4ccccc34)c(Br)c2)C(=O)NS(=O)(=O)c2ccc(NCCCc3ccccc3)c([N+](=O)[O-])c2)cc1 | 0.73 | 2.04 | 10.47 | 0.23 | 2.44 | 16.21 | 85.9 | 8.34 | 80.03 | 2.38 | 84.5 | 2.63 | 4.31 | inhibition (Homo sapiens): > 50%; Activity (HepG2 [5]): inactive; Activity (KM3): Dose-dependent effect; Activity (HepG2 [14]): Dose-dependent effect; Activity (HepG2 [18]): Dose-dependent effect; Activity (HepG2 [19]): 9.03%; Activity [20]: 74.52%; Activity [21]: 0.93%; viability at 20 µM (HepG2 [22]): 15.6%; IC50 [23]: 11.5 µM |
| 11.4 | > 50 | 8.43 | 9.79 | 5.77 | 3.14 | 6.08 | O=C(O)CSc1cc(NS(=O)(=O)c2ccc(Br)cc2)c2ccccc2c1O | 0.31 | 0.45 | 15.35 | 0.21 | 2.23 | 40.5 | 76.4 | 23.8 | 86.11 | 2.44 | 72.7 | 1.36 | 11.64 | Ki [24]: 11 µM; Activity (HepG2 [25]): Active; Activity (HepG2 [19]): 20.03%; Activity [20]: 34.2%; Activity [21]: 1.52%; viability at 20 µM (HepG2 [22]): 11%; IC50 [23]: 11.2 µM |
| 6.42 | > 50 | 15.8 | 15.1 | 6.34 | 17.4 | 20.7 | Cc1cc(OCCCOc2ccc(C[C@H](NC(=O)OC(C)(C)C)C(=O)NS(=O)(=O)c3ccc(NCCCc4ccccc4)c([N+](=O)[O-])c3)cc2)cc(C)c1Cl | 0.66 | 2.64 | 12.11 | 0.18 | 2.24 | 20.71 | 88.6 | 12.9 | 78.54 | 3.4 | 82.3 | 2.02 | 4.94 | Ki [24]: 1.1 µM; Activity (HepG2 [5]): inactive; Activity (KM3): Dose-dependent effect; Activity (HepG2 [14]): Dose-dependent effect; Activity (HepG2 [18]): Dose-dependent effect; Activity (HepG2 [19]): 7.18%; Activity [20]: 64.31%; Activity [21]: 2.09%; viability at 20 µM (HepG2 [22]): 15.4%; IC50 [23]: 8.25 µM |

— ChEMBL document CHEMBL4765272, “Design, synthesis and biological evaluation of tyrosine derivatives as Mcl-1 inhibitors” (Eur J Med Chem, 2020)
